The record followed here is patent publication US12606594B2, “Heterotandem bicyclic peptide complexes” (BicycleTx Limited, priority 2019, dated 2026).

A short description of data set [1]: CD137 reporter assay co-culture with tumor cells (Promega CD137 luciferase reporter, Jurkat cells). Type of data set: cell-based. The note with it: read-out: Emax (Fold Induction over background). The protocol: (§1) Culture medium, referred to as R1 media, is prepared by adding 1% FBS to RPMI-1640 (component of Promega kit CS196005). Serial dilutions of test articles in R1 are prepared in a sterile 96 well-plate. Add 25 μL per well of test articles or R1 (as a background control) to designated wells in a white cell culture plate. Tumor cells* are harvested and resuspended at a concentration of 400,000 cells/mL in R1 media. Twenty five (25) μL/well of tumor cells are added to the white cell culture plate. Jurkat cells (Promega kit CS196005, 0.5 mL) are thawed in the water bath and then added to 5 ml pre-warmed R1 media. Twenty five (25) […] of Jurkat cells are then added to the white cell culture plate. Incubate the cells and test articles for 6 h at 37° C., 5% CO2. At the end of 6 h, add 75 µL/well Bio-Glo™ reagent (Promega) and incubate for 10 min before reading luminescence in a plate reader (Clariostar, BMG). The fold change relative to cells alone (Jurkat cells+Cell line used in co-culture) is calculated and plotted in GraphPad Prism as log(agonist) vs response to determine EC50 (nM) and Fold Induction over background (Max).
(§2) The tumor cell types used in co-culture for EphA2 are A549, PC-3 and HT29.
A general note: In a reporter assay the amount or activity of a reporter protein is the signal.

The next data set has as its system CD137. The description is as above. It counts as cell-based. The protocol:
as §1, §2

Data set [2] is described as follows: Pharmacokinetics of BCY13272 in SD rats. It counts as in vivo. The settings on record: 3.6 mg/kg IV infusion (15 min). The protocol:
Male SD Rats were dosed with heterotandem complex BCY13272 formulated in 25 mM Histidine HCl, 10% sucrose pH 7 by IV bolus or IV infusion (15 minutes). Serial bleeding (about 80 μL blood/time point) was performed via submandibular or saphenous vein at each time point. All blood samples were immediately transferred into prechilled microcentrifuge tubes containing 2 μL K2-EDTA (0.5M) as anti-coagulant and placed on wet ice. Blood samples were immediately processed for plasma by centrifugation at approximately 4° C., 3000 g. The precipitant including internal standard was immediately added into the plasma, mixed well and centrifuged at 12,000 rpm, 4° C. for 10 minutes. The supernatant was transferred into pre-labeled polypropylene microcentrifuge tubes, and then quick-frozen over dry ice. The samples were stored at […] or below as needed until analysis. 7.5 μL of the supernatant samples were directly injected for LC-MS/MS analysis using an Orbitrap Q Exactive in positive ion mode to determine the concentrations of analyte. Plasma concentration versus time data were analyzed by non-compartmental approaches using the Phoenix WinNonlin 6.3 software program. CO, Cl, Vdss, T½, AUC(0-last), AUC(0-inf), MRT(0-last), MRT(0-inf) and graphs of plasma concentration versus time profile were reported.

Where “and” joins values, the source holds several entries; their conditions need not be identical. Equal entries are not always repeated. Where two headings read alike, the source gives them in different places. Starred links: 1 amine or outer side, 2 acyl side, 3 side chain; linkers in the order of their positions; H or OH if unused. Positions of bridges follow the written chain, without caps; N, C: chain ends. Non-standard residues stand in square brackets, D forms with d. Chains are numbered I, II in the order given. X1 = O=C(CCOCCOCCOCCN(CCOCCOCCOCCn1cc(CCC(=O)[*:2])nn1)CCOCCOCCOCCn1cc(CCC(=O)[*:3])nn1)[*:1]; TATA = O=C(CC[*:1])N1CN(C(=O)CC[*:2])CN(C(=O)CC[*:3])C1; d1Nal = N[C@H](Cc1cccc2ccccc12)C(=O)O; Hyp = O=C(O)[C@@H]1C[C@@H](O)CN1; hArg = N=C(N)NCCCC[C@H](N)C(=O)O; tBuAla = CC(C)(C)C[C@H](N)C(=O)O; Nle = CCCC[C@H](N)C(=O)O

The term clearance denotes the rate of elimination divided by the concentration. In the case of “I: A[hArg]DC[Hyp]LVNPLCLEP[d1Nal]WTC-NH2 / II: Ac-C[tBuAla]PE[dK]PYCFADPY[Nle]CA-NH2 / III: Ac-C[tBuAla]PE[dK]PYCFADPY[Nle]CA-NH2 (linker I:4-I:11-I:18, II:1-II:8-II:15, III:1-III:8-III:15 via TATA (inferred); linker I:N-II:5-III:5 via X1 (inferred)) [BCY13272]”, the figures for the fold induction in data set [1] (EphA2 cell line A549), in data set [1] (EphA2 cell line HT-29) and in data set [1] (EphA2 cell line PC-3) were 25.7, 36.5 and 44.2, respectively. Further, the “Emax (Fold Induction over background)” value in the data set with CD137 (EphA2 cell line A549) was 23.6 and 30.2; with CD137 (EphA2 cell line HT-29) it was 26 and 36.4; with CD137 (EphA2 cell line PC-3), 53 and 44.5. In addition, the “T½ (terminal half-life)” value in data set [2] (3.6 mg/kg) stood at 2.9 h. Further, in data set [2] (rat, in vivo, read-out: Clp (clearance)), the clearance was 7.4 mL/min/kg.
